Measurements reported in patent publication US20130289077A1 (priority 2010, published 2013).

Experiments:
[1] = Measurement of logP by HPLC on reversed phase columns (EEC directive 79/831 Annex V.A8); type: physicochemical; details: pH 2.7, 0.1% formic acid in water / acetonitrile gradient
[2] = system: Phytophthora infestans; type: in vivo; details: tomato young plants, preventive spray, 100 ppm of active ingredient, evaluated 7 days after inoculation; 0% = untreated control, 100% = no disease

| SMILES | chromatographic logP ([1]; reversed phase HPLC column, read-out: LogP (HCOOH)) | Eff. % [2] [%] | LogP (HCOOH) [1] |
| --- | --- | --- | --- |
| CCC(C)=NOC(=O)Nc1cccc(CO/N=C(/c2ccccc2)c2nnnn2C)n1 [Example 1, [(butan-2-ylideneamino)oxy]({6-[({[(Z)-(1-methyl-1H-tetrazol-5-yl)(phenyl)methylene]amino}oxy)methyl]pyridin-2-yl}amino)methanone] | 3.27 | 95 | – |
| CCCCC(C)=NOC(=O)Nc1cccc(CON=C(c2ccccc2)c2nnnn2C)n1 [Example 2] | – | 92 | 3.96 |
| CC(=NOC(=O)Nc1cccc(CON=C(c2ccccc2)c2nnnn2C)n1)c1ccccc1 [Example 3] | – | 94 | – |
| CCC(=NOC(=O)Nc1cccc(CON=C(c2ccccc2)c2nnnn2C)n1)c1ccccc1 [Example 4] | – | 97 | – |
| CC(=NOC(=O)Nc1cccc(CON=C(c2ccccc2)c2nnnn2C)n1)C(C)(C)C [Example 7] | – | 95 | – |
| Cn1nnnc1C(=NOCc1cccc(NC(=O)ON=C(CCl)C(C)(C)C)n1)c1ccccc1 [Example 8] | – | 93 | – |
| CCCCCCC(C)=NOC(=O)Nc1cccc(CON=C(c2ccccc2)c2nnnn2C)n1 [Example 11] | – | 90 | 4.79 |
| CC(=NOC(=O)Nc1cccc(CON=C(c2ccccc2)c2nnnn2C)n1)C(C)C [Example 13] | – | 95 | – |
| CC(C)=NOC(=O)Nc1cccc(CON=C(c2ccccc2)c2nnnn2C)n1 [Example 14] | – | 92 | – |
| CC(=NOC(=O)Nc1cccc(CON=C(c2ccccc2)c2nnnn2C)n1)C1CC1 [Example 18] | – | 93 | – |
| CCCCCC(C)=NOC(=O)Nc1cccc(CON=C(c2ccccc2)c2nnnn2C)n1 [Example 20] | – | 95 | 4.39 |
